Assay results as given in US10213415B2, “Compounds as opioid receptor modulators” (JANSSEN PHARMACEUTICA NV, priority 2004, dated 2019).
Several values for one entry are separate records, joined by “and”; a condition that tells them apart may be missing. Equal values may be shown once. Read-outs that look alike come from different tables or passages of the source.

Experiments:
[1] = target: T1, mu opioid receptor (Rattus norvegicus, UniProt P33535); experiment: Rat Brain Mu Opioid Receptor Binding Assay (and Version 2a, [3H]DAMGO); settings: rat forebrain membranes, margin of error 10-20%
T1 construct: from tissue; host or cells: forebrain of male Wistar rats
In short: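 Displacement of the mu-selective radioligand [3H]DAMGO (0.8 nM) measured by filtration and scintillation counting after 2.5 h at 25° C. Membranes came from male Wistar rat forebrain in Tris-HCl (50 mM, pH 7.4) plus 5 mM MgCl2; Ki derived from concentration–response, % inhibition for single doses.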

[2] = target: T2, human delta subtype 2 opioid receptor (Homo sapiens, UniProt P41143); experiment: Human Delta Opioid Receptor Binding Assay (CHO membranes, 3H-Naltrindole); settings: read-out: hKi δ
T2 construct: purchased Perkin Elmer RBHODM400UA; host or cells: Chinese Hamster Ovary cells (recombinant expression)
In short: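 Compound displacement of tritiated naltrindole (6 nM working dilution) measured by scintillation counting after GF/C filtration. Receptor source: recombinant CHO membranes; buffer 50 mM Tris, 5 mM MgCl2, pH 7.5; 30 min room-temperature incubation. 1 μM cold naltrindole sets nonspecific binding.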

[3] = target: T3, delta opioid receptor (NG108-15 cell membranes) (Mus musculus, UniProt P32300); experiment: Delta Opioid Receptor Functional Assay: [35S]GTPγS Binding in NG108-15 Cell Membranes, Version 2; type: biochemical; settings: for DOR GTP-binding Assay v2 (% I): % inhibition of agonist-stimulated GTPγS binding
T3 construct: NG108-15 cell membranes were purchased from Applied Cell Sciences (Rockville, Md.); host or cells: NG108-15 cells (membranes purchased)
In short: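 SPA-coupled NG108-15 membranes (37.5 μg/ml) were incubated with 0.1 nM [35S]GTPγS and 100 μM GDP in Tris pH 7.6, 5 mM MgCl2, 100 mM NaCl, with increasing agonist concentrations; 10 μM unlabeled GTPγS defined nonspecific binding. EC50 from % of basal; inhibition as % of 1 μM SNC80 stimulation.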

[4] = NG108-15 cell membranes, [35S]GTPγS, version 2, read-out: DOR GTP-binding Assay_v2_ EC50
[5] = NG108-15 cell membranes, version 2

T3 sequence (P32300 whole entry): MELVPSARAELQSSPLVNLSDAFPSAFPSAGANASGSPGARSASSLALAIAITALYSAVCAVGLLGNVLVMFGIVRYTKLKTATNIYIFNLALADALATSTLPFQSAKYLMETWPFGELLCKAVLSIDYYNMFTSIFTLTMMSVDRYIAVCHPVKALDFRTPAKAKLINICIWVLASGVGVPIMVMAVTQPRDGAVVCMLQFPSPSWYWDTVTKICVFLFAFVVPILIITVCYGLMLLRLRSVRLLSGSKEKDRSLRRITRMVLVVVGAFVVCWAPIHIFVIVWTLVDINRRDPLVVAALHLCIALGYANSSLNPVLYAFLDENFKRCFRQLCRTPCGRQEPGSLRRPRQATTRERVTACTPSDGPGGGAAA
T2 sequence (P41143 whole entry): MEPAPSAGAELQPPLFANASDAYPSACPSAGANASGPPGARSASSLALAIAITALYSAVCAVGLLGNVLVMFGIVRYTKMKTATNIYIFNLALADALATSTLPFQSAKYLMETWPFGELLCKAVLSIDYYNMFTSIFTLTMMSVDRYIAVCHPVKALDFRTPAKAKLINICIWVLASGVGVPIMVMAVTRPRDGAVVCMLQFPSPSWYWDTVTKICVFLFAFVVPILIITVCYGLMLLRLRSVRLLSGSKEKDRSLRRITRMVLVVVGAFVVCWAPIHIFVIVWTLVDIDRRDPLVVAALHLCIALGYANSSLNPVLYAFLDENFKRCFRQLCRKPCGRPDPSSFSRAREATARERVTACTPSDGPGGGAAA
T1 sequence (P33535 whole entry): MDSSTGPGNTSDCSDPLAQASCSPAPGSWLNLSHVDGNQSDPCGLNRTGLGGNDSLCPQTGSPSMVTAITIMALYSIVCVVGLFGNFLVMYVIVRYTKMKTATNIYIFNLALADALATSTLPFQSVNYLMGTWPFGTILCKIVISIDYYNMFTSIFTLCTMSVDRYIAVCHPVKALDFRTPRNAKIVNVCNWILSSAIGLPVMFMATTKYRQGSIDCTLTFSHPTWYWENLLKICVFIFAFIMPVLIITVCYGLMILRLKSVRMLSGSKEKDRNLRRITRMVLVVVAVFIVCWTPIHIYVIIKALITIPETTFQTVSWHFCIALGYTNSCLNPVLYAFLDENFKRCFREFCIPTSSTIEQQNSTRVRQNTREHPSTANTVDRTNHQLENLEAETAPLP

SMILES	Ki ([1]; read-out: r Ki μ)	Ki [2]	EC50 [3, 4] [nM]	DOR GTP-binding Assay v2 (% I) [3, 5] [%]	Ki ([1]; r Ki μ)	EC50 [3] [nM]
Cc1cc(O)cc(C)c1C[C@H](N)C(=O)N(Cc1nc(-c2ccccc2)c[nH]1)C(C)C [Cpd 194]	0.06 nM	103 nM	–	–	–	–
CCN(C(=O)[C@@H](N)Cc1c(C)cc(O)cc1C)[C@@H](C)c1nc(-c2ccccc2)c[nH]1 [Cpd 216]	0.04 nM	–	–	–	–	–
Cc1cc(O)cc(C)c1C[C@H](N)C(=O)N(C)[C@@H](C)c1nc(-c2ccccc2)c[nH]1 [Cpd 207]	0.05 nM and 0.08 nM and 0.1 nM	132 nM	–	–	–	–
COC(=O)c1ccc(CN(C(=O)[C@@H](N)Cc2ccc(C(N)=O)cc2)[C@@H](C)c2nc(-c3ccccc3)c[nH]2)o1 [Cpd 303]	3.87 nM	–	95	23.85	–	–
CCN(C(=O)[C@@H](N)Cc1c(C)cc(O)cc1C)[C@H](C)c1nc(-c2ccccc2)c[nH]1 [Cpd 217]	1.08 nM	506 nM	–	–	–	–
COc1ccc(CN(C(=O)[C@@H](N)Cc2ccc(C(N)=O)cc2)[C@@H](C)c2nc(-c3ccccc3)c[nH]2)cc1C(=O)O [Cpd 4]	2.41 nM	–	46	66.12	–	–
Cc1cc(C(N)=O)cc(C)c1C[C@H](N)C(=O)N(Cc1cccc(C(=O)O)c1)[C@@H](C)c1nc(-c2ccccc2)c[nH]1 [Cpd 227]	0.96 nM	–	> 10000	66.56	–	–
C[C@H](c1nc(-c2ccccc2)c[nH]1)N(Cc1ccccc1)C(=O)[C@@H](N)Cc1ccc(O)cc1 [Cpd 221]	0.36 nM	–	–	–	–	–
Cc1cc(C(N)=O)cc(C)c1C[C@H](N)C(=O)N(Cc1ccccc1)[C@@H](C)c1nc(-c2ccccc2)c[nH]1 [Cpd 114]	0.26 nM	49 nM	–	–	–	–
COc1ccc(CN(Cc2nc(-c3ccccc3)c[nH]2)C(=O)[C@@H](N)Cc2ccc(C(N)=O)cc2)cc1C(=O)O [Cpd 5]	1.19 nM	–	> 10000	47.12	–	–
COC(=O)c1ccc(CN(C(=O)[C@@H](N)Cc2c(C)cc(C(N)=O)cc2C)[C@@H](C)c2nc(-c3ccccc3)c[nH]2)o1 [Cpd 257]	1.22 nM	–	7.4	48.88	–	–
Cc1cc(O)cc(C)c1C[C@H](N)C(=O)N(C)[C@H](C)c1nc(-c2ccccc2)c[nH]1 [Cpd 206]	0.2 nM	275 nM	–	–	–	–
CCN(C(=O)[C@@H](N)Cc1ccc(O)cc1)[C@@H](C)c1nc(-c2ccccc2)c[nH]1 [Cpd 215]	0.43 nM	–	–	–	–	–
CC(C)N(C(=O)[C@@H](N)Cc1ccc(O)cc1)[C@@H](C)c1nc(-c2ccccc2)c[nH]1 [Cpd 225]	0.73 nM	–	–	–	–	–
CCN(C(=O)[C@@H](N)Cc1ccc(O)cc1)[C@H](C)c1nc(-c2ccccc2)c[nH]1 [Cpd 214]	44 nM	–	–	–	–	–
COc1ccc(CN(C(=O)[C@@H](N)Cc2ccc(O)cc2)[C@@H](C)c2nc(-c3ccccc3)c[nH]2)cc1C(=O)O [Cpd 261]	0.79 nM	–	21	30.04	–	–
Cc1cc(O)cc(C)c1C[C@H](N)C(=O)N(Cc1ccnc2ccccc12)[C@@H](C)c1nc(-c2ccccc2)c[nH]1 [Cpd 246]	0.15 nM	–	0.3	47.01	–	–
Cc1cc(O)cc(C)c1C[C@H](N)C(=O)N(Cc1nc(-c2ccccc2)c(C)[nH]1)C(C)C [Cpd 166]	0.03 nM and 0.07 nM	300 nM and 375 nM	–	–	–	–
Cc1cc(O)cc(C)c1C[C@H](N)C(=O)N(Cc1nc(-c2ccccc2)c[nH]1)C1CCCCC1 [Cpd 190]	2.61 nM	285 nM	–	–	–	–
CC(C)N(Cc1nc(-c2ccccc2)c[nH]1)C(=O)[C@@H](N)Cc1ccc(O)cc1 [Cpd 195]	9.29 nM	> 10000 nM	–	–	–	–

SMILES	Ki ([1]; read-out: r Ki μ)	Ki [2]	EC50 [3, 4] [nM]	DOR GTP-binding Assay v2 (% I) [3, 5] [%]	Ki ([1]; r Ki μ)	EC50 [3] [nM]
Cc1cc(O)cc(C)c1C[C@H](N)C(=O)N(Cc1cccc(C(=O)O)c1)[C@@H](C)c1nc(-c2ccccc2)c[nH]1 [Cpd 48]	0.14 nM	–	> 10000	108.36	–	–
C[C@@H](c1nc(-c2ccccc2)c[nH]1)N(Cc1ccccc1)C(=O)[C@@H](N)Cc1ccc(O)cc1 [Cpd 219]	0.87 nM	–	–	–	–	–
C[C@H](c1nc(-c2ccccc2)c[nH]1)N(C)C(=O)[C@@H](N)Cc1ccc(C(N)=O)cc1 [Cpd 203]	29.1 nM	501 nM	–	–	–	–
COc1ccc(CN(C(=O)[C@@H](N)Cc2c(C)cc(O)cc2C)[C@@H](C)c2nc(-c3ccccc3)c[nH]2)cc1C(=O)O [Cpd 260]	0.24 nM	–	> 10000	100.97	–	–
Cc1cc(O)cc(C)c1C[C@H](N)C(=O)N(C)Cc1nc(-c2ccccc2)c[nH]1 [Cpd 199]	0.3 nM	209 nM	–	–	–	–
Cc1cc(O)cc(C)c1C[C@H](N)C(=O)N(Cc1nc(-c2ccccc2)c[nH]1)CC1CC1 [Cpd 192]	0.09 nM	–	–	–	–	–
Cc1cc(O)cc(C)c1C[C@H](N)C(=O)N(Cc1nc(-c2cc(C(F)(F)F)cc(C(F)(F)F)c2)c(C)[nH]1)C(C)C [Cpd 164]	0.38 nM	–	–	–	–	–
COc1ccc(CN(C(=O)[C@@H](N)Cc2c(C)cc(C(N)=O)cc2C)[C@@H](C)c2nc(-c3ccccc3)c[nH]2)cc1OC [Cpd 75]	0.51 nM	8.5 nM	1.4	65.35	–	–
Cc1ccccc1-c1nc(CN(C(=O)[C@@H](N)Cc2c(C)cc(O)cc2C)C(C)C)[nH]c1C [Cpd 165]	0.07 nM	322 nM	–	–	–	–
COc1ccc(CN(C(=O)[C@@H](N)Cc2c(C)cc(C(N)=O)cc2C)[C@@H](C)c2nc(-c3ccccc3)c[nH]2)cc1C(=O)O [Cpd 18]	–	–	–	100	0.75 nM and 1.1 nM	> 10000
Cc1cc(O)cc(C)c1C[C@H](N)C(=O)N(Cc1nc(-c2ccc(F)cc2)c(C)[nH]1)C(C)C [Cpd 163]	0.03 nM	301 nM and 63 nM	–	–	–	–
Cc1cc(C(N)=O)cc(C)c1C[C@H](N)C(=O)N(Cc1ccc(C(=O)O)o1)[C@@H](C)c1nc(-c2ccccc2)c[nH]1 [Cpd 256]	7.08 nM	–	> 10000	89.19	–	–
COc1ccc(CN(C(=O)[C@@H](N)Cc2c(C)cc(C(N)=O)cc2C)[C@@H](C)c2nc(-c3ccc(I)cc3)c[nH]2)cc1C(=O)O [Cpd 289]	0.25 nM	–	> 10000	86.27	–	–
Cc1cc(C(N)=O)cc(C)c1C[C@H](N)C(=O)N(Cc1ccc(C(=O)O)cc1)[C@@H](C)c1nc(-c2ccccc2)c[nH]1 [Cpd 50]	1.68 nM	–	1.4	60.27	–	–
Cc1cc(O)cc(C)c1C[C@H](N)C(=O)N(Cc1ccccc1)[C@@H](C)c1nc(-c2ccccc2)c[nH]1 [Cpd 218]	0.03 nM	189 nM	–	–	–	–
Cc1cc(O)cc(C)c1C[C@H](N)C(=O)N(C)[C@@H](C)c1nc(Cc2ccccc2)c[nH]1 [Cpd 205]	0.14 nM	–	–	–	–	–
COc1ccc(CN(C(=O)[C@@H](N)Cc2c(C)cc(C(N)=O)cc2C)[C@@H](C)c2nc(-c3ccccc3)c[nH]2)cc1-c1nnn[nH]1 [Cpd 8]	0.51 nM	–	> 10000	94.03	–	–
Cc1cc(C(N)=O)cc(C)c1C[C@H](N)C(=O)N(Cc1cccc(-c2nnn[nH]2)c1)[C@@H](C)c1nc(-c2ccccc2)c[nH]1 [Cpd 242]	0.59 nM	–	> 10000	91.45	–	–
COC(=O)c1cc(CN(C(=O)[C@@H](N)Cc2c(C)cc(C(N)=O)cc2C)[C@@H](C)c2nc(-c3ccccc3)c[nH]2)ccc1OC [Cpd 17]	0.22 nM	–	1.3	68.64	–	–
